Measured values from US20120083522A1, “MODULATION OF INFLAMMATORY RESPONSES BY FACTOR XI” (Isis Pharmaceuitcals, inc., priority 2009, published 2012).
In the oligonucleotide strings, read from the 5' end, every base follows the letter of its sugar. An asterisk marks phosphorothioate; unmarked linkages are phosphodiester. Other units and linkages are bracketed, terminal groups are in braces. A string of capitals states the bases alone. e = 2'-O-(2-methoxyethyl) (MOE); [5mC] = 5-methylcytosine; d = 2'-deoxy (DNA)

Legend:
human Factor XI mRNA [1] = experiment: Dose-dependent inhibition in HepG2 cells, electroporation (Example 5); assay type: cell-based; conditions: approx. 16 h, relative to untreated control cells
Experimental: The gapmers were also transfected via electroporation and their dose dependent inhibition of human Factor XI mRNA was measured. Cells were plated at a density of 20,000 cells per well and transfected via electroporation with 625 nM, 1250 nM, 2500 nM, 5,000 nM, 10,000 nM, and 20,000 nM concentrations of antisense oligonucleotide, as specified in Table 12. After a treatment period of approximately 16 hours, RNA was isolated from the cells and human Factor XI mRNA levels were measured by quantitative real-time PCR. Human Factor XI primer probe set RTS 2966 was used to measure mRNA levels. Factor XI mRNA levels were adjusted according to total RNA content, as measured by RIBOGREEN®. Results are presented as percent inhibition of human Factor XI, relative to untreated control cells.

human Factor XI mRNA [2] = experiment: Dose-dependent inhibition in HepG2 cells, lipofectin (Example 4); assay type: cell-based; conditions: 16 hours
How it was run: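 Read-out was percent inhibition of Factor XI mRNA relative to untreated controls, by qRT-PCR (RTS 2966) adjusted for RIBOGREEN-measured total RNA. Cells received antisense oligonucleotide at 9.375 to 75 nM (four levels) via lipofectin. Treatment lasted approximately 16 hours, with plating at 10,000 cells per well.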

human Factor XI mRNA [3] = experiment: Dose-dependent inhibition in cyno primary hepatocytes, electroporation (Example 6); assay type: cell-based, cynomolgus monkey; conditions: approx. 16 h
Experimental: Cells were plated at a density of 35,000 cells per well and transfected via electroporation with 0.74 nM, 2.2 nM, 6.7 nM, 20 nM, 60 nM, and 180 nM concentrations of antisense oligonucleotide, as specified in Table 13. After a treatment period of approximately 16 hours, RNA was isolated from the cells and human Factor XI mRNA levels were measured by quantitative real-time PCR. Human Factor XI primer probe set RTS 2966 was used to measure mRNA levels. Factor XI mRNA levels were adjusted according to total RNA content, as measured by RIBOGREEN®. Results are presented as percent inhibition of human Factor XI, relative to untreated control cells.

human Factor XI mRNA [4] = experiment: Dose-dependent inhibition in HepB3 cells, lipofectin (Example 7); assay type: cell-based; conditions: approx. 16 h
Experimental: Cells were plated at a density of 4,000 cells per well and transfected using lipofectin reagent with 2.3 nM, 4.7 nM, 9.4 nM, 18.75 nM, 37.5 nM, and 75 nM concentrations of antisense oligonucleotide, as specified in Table 14. After a treatment period of approximately 16 hours, RNA was isolated from the cells and human Factor XI mRNA levels were measured by quantitative real-time PCR. Human Factor XI primer probe set RTS 2966 was used to measure mRNA levels. Factor XI mRNA levels were adjusted according to total RNA content, as measured by RIBOGREEN®. Results are presented as percent inhibition of Factor XI, relative to untreated control cells.

human Factor XI mRNA [5] = experiment: Antisense inhibition in HepG2 cells by microwalk gapmers, 8,000 nM, electroporation (Example 14); assay type: cell-based; conditions: HepG2 cells, 8,000 nM
How it was run: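 Percent reduction of Factor XI transcript, relative to untreated controls, by real-time PCR with RIBOGREEN normalisation. Readout taken about 24 h after electroporating HepG2 cells with 8,000 nM oligonucleotide. Gapmers are 5-10-5, 5-8-5 or 6-8-6 MOE wings, phosphorothioate backbone.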

| Substance | percent inhibition of human Factor XI mRNA (human Factor XI mRNA [1]; 625 nM) | percent inhibition of human Factor XI mRNA (human Factor XI mRNA [1]; 1250 nM) | percent inhibition of human Factor XI mRNA (human Factor XI mRNA [1]; 2500 nM) | percent inhibition of human Factor XI mRNA (human Factor XI mRNA [1]; 5000 nM) | percent inhibition of human Factor XI mRNA (human Factor XI mRNA [1]; 10000 nM) | percent inhibition of human Factor XI mRNA (human Factor XI mRNA [1]; 20000 nM) | percent inhibition of Factor XI mRNA, relative to untreated control cells (human Factor XI mRNA [2]; 9.375 nM) | percent inhibition of Factor XI mRNA, relative to untreated control cells (human Factor XI mRNA [2]; 18.75 nM) | percent inhibition of Factor XI mRNA, relative to untreated control cells (human Factor XI mRNA [2]; 37.5 nM) | percent inhibition of Factor XI mRNA, relative to untreated control cells (human Factor XI mRNA [2]; 75 nM) | percent inhibition of human Factor XI mRNA (human Factor XI mRNA [3]; 0.74 nM) | percent inhibition of human Factor XI mRNA (human Factor XI mRNA [3]; 2.2 nM) | percent inhibition of human Factor XI mRNA (human Factor XI mRNA [3]; 6.7 nM) | percent inhibition of human Factor XI mRNA (human Factor XI mRNA [3]; 20 nM) | percent inhibition of human Factor XI mRNA (human Factor XI mRNA [3]; 60 nM) | percent inhibition of human Factor XI mRNA (human Factor XI mRNA [3]; 180 nM) | percent inhibition of human Factor XI mRNA (human Factor XI mRNA [4]; 2.3 nM) | percent inhibition of human Factor XI mRNA (human Factor XI mRNA [4]; 4.7 nM) | percent inhibition of human Factor XI mRNA (human Factor XI mRNA [4]; 9.4 nM) | percent inhibition of human Factor XI mRNA (human Factor XI mRNA [4]; 18.75 nM) | also measured |
| --- | --- | --- | --- | --- | --- | --- | --- | --- | --- | --- | --- | --- | --- | --- | --- | --- | --- | --- | --- | --- | --- |
| 416838 (antisense GCAACCGGGATGATGAGTGC; 5-10-5 gapmer, wing sugar chemistry not given here, further chemistry not given here) [compound 416838] | 66% | 79% | 87% | 90% | 93% | 96% | 31% | 51% | 64% | 86% | 0% | 0% | 21% | 34% | 48% | 62% | 23% | 34% | 43% | 59% | percent inhibition of human Factor XI mRNA (human Factor XI mRNA [4]; 37.5 nM): 71%; percent inhibition of human Factor XI mRNA (human Factor XI mRNA [4]; 75 nM): 56% |
| 416925 (antisense GGTGCACAGTTTCTGGCAGG; 3-14-3 chimeric gapmer, wing sugar chemistry not given here, further chemistry not given here) [compound 416925] | 64% | 80% | 88% | 91% | 95% | 96% | 13% | 38% | 59% | 75% | 0% | 9% | 1% | 48% | 55% | 76% | 26% | 33% | 45% | 59% | percent inhibition of human Factor XI mRNA (human Factor XI mRNA [4]; 37.5 nM): 72%; percent inhibition of human Factor XI mRNA (human Factor XI mRNA [4]; 75 nM): 60% |
| 416999 (antisense GCACAGTTTCTGGCAGGCCT; 2-13-5 gapmer, wing sugar chemistry not given here, further chemistry not given here) [compound 416999] | 61% | 82% | 89% | 94% | 94% | 97% | 24% | 37% | 55% | 73% | 3% | 40% | 36% | 62% | 67% | 82% | 19% | 33% | 42% | 60% | percent inhibition of human Factor XI mRNA (human Factor XI mRNA [4]; 37.5 nM): 71%; percent inhibition of human Factor XI mRNA (human Factor XI mRNA [4]; 75 nM): 59% |
| 417002 (antisense GGTGCACAGTTTCTGGCAGG; 2-13-5 gapmer, wing sugar chemistry not given here, further chemistry not given here) [compound 417002] | 59% | 72% | 86% | 90% | 94% | 96% | 35% | 52% | 67% | 70% | 32% | 16% | 28% | 38% | 55% | 71% | 24% | 30% | 46% | 57% | percent inhibition of human Factor XI mRNA (human Factor XI mRNA [4]; 37.5 nM): 71%; percent inhibition of human Factor XI mRNA (human Factor XI mRNA [4]; 75 nM): 65% |
| 417003 (antisense TGGTGCACAGTTTCTGGCAG; 2-13-5 gapmer, wing sugar chemistry not given here, further chemistry not given here) [compound 417003] | 60% | 74% | 86% | 90% | 95% | 95% | 26% | 44% | 60% | 56% | 12% | 18% | 19% | 39% | 58% | 74% | 11% | 28% | 40% | 40% | percent inhibition of human Factor XI mRNA (human Factor XI mRNA [4]; 37.5 nM): 63%; percent inhibition of human Factor XI mRNA (human Factor XI mRNA [4]; 75 nM): 58% |
| 445522 (antisense eG*e[5mC]*eA*e[5mC]*eA*dG*dT*dT*dT*d[5mC]*dT*dG*dG*e[5mC]*eA*eG*eG*e[5mC]) [compound 445522] |  |  |  |  |  |  |  |  |  |  |  |  |  |  |  |  |  |  |  |  | Percent inhibition of human Factor XI mRNA levels (human Factor XI mRNA [5]): 91% |
| 445531 (antisense eG*eG*e[5mC]*eA*eT*dT*dG*dG*dT*dG*d[5mC]*dA*d[5mC]*eA*eG*eT*eT*eT) [compound 445531] |  |  |  |  |  |  |  |  |  |  |  |  |  |  |  |  |  |  |  |  | Percent inhibition of human Factor XI mRNA levels (human Factor XI mRNA [5]): 90% |
